Source: patent publication US10975068B2, “6-aminopyridin-3-yl thiazoles as modulators of RORγT” (Janssen Pharmaceutica NV, priority 2016, dated 2021)
Like-named read-outs stand apart in the source and are kept apart here.

Columns and labels:
[1] = target: human RORγt ligand binding domain (RORγt LBD) (Homo sapiens (Human), UniProt P51449); assay: RORγt ThermoFluor® assay (thermal shift binding); conditions: read-out: ThermoFluor® Assay, Kd
Description: ThermoFluor® is a fluorescence based assay that estimates ligand binding affinities by measuring the effect of a ligand on protein thermal stability (Pantoliano, M. W., Petrella, E. C., Kwasnoski, J. D., Lobanov, V. S., Myslik, J., Graf, E., Carver, T., Asel, E., Springer, B. A., Lane, P., and Salemme, F. R. (2001) High-density miniaturized thermal shift assays as a general strategy for drug discovery. J Biomol Screen 6, 429-40, and Matulis, D., Kranz, J. K., Salemme, F. R., and Todd, M. J. (2005) Thermodynamic stability of carbonic anhydrase: measurements of binding affinity and stoichiometry using ThermoFluor. Biochemistry 44, 5258-66). This approach is applicable to a wide variety of systems, and rigorous in theoretical interpretation through quantitation of equilibrium binding constants (KD).
The shift in the melting point described as a ΔTm is proportional to the concentration and affinity of the ligand. The compound potency may be compared as a rank order of either ΔTm values at a single compound concentration or in terms of KD values, estimated from concentration response curves.
RORγt ThermoFluor® Assay Construct
For the RORγt construct used in the ThermoFluor® assay, numbering for the nucleotide sequences was based on the reference sequence for human RORγt, transcript variant 2, NCBI Accession: NM_001001523.1 (SEQ ID NO:1). Nucleotides 850-1635 (SEQ ID NO:2) coding for the wild type human RORγt ligand binding domain (RORγt LBD) were cloned into the pHIS1 vector, a modified pET E. coli expression vector (Accelagen, San Diego), containing an in-frame N-terminal His-tag and a TurboTEV protease cleavage site (ENLYFQG, SEQ ID NO:3) upstream of the cloned insert sequence. The amino acid sequence for the RORγt construct used in the Thermofluor® assay is shown as SEQ ID NO:4.
ThermoFluor® experiments were carried out using instruments owned by Janssen Research and Discovery, L.L.C. through its acquisition of 3-Dimensional Pharmaceuticals, Inc. 1,8-ANS (Invitrogen) was used as a fluorescent dye. Protein and compound solutions are dispensed into black 384-well polypropylene PCR microplates (Abgene) and overlayed with silicone oil (1 μL, Fluka, type DC 200) to prevent evaporation.
Bar-coded assay plates are robotically loaded onto a thermostatically controlled PCR-type thermal block and then heated at a typical ramp-rate of 1° C./min for all experiments. Fluorescence was measured by continuous illumination with UV light (Hamamatsu LC6) supplied via fiber optic and filtered through a band-pass filter (380-400 nm; >6 OD cutoff). Fluorescence emission of the entire 384-well plate was detected by measuring light intensity using a CCD camera (Sensys, Roper Scientific) filtered to detect 500±25 nm, resulting in simultaneous and independent readings of all 384 wells. Images were collected at each temperature, and the sum of the pixel intensity in a given area of the assay plate was recorded versus temperature. Reference wells contained RORγt without compounds, and the assay conditions were as follows: • 0.065 mg/mL RORγt • 60 μM 1,8-ANS • 100 mM Hepes, pH 7.0 • 10 mM NaCl • 2.5 mM GSH • 0.002% Tween-20
Project compounds were arranged in a pre-dosed mother plate (Greiner Bio-one) wherein compounds are serially diluted in 100% DMSO by 1:2 from a high concentration of 10 mM over 12 columns within a series (column 12 is a reference well containing DMSO, no compound). The compounds were robotically dispensed directly into assay plates (×=46 nL) using a Hummingbird capillary liquid handling instrument (Digilab). Following compound dispense, protein and dye in buffer was added to achieve the final assay volume of 3 μL, followed by 1 μL of silicone oil.

full-length human RORγt = full-length human RORγt (Homo sapiens (Human), UniProt P51449); assay: RORγt (full-length human) reporter assay, Conditions B or C; format: cell-based; conditions: for inhibition at 3 µM: at 3 μM compound concentration, read-out: RORγt (FL) Reporter Assay B or C, % inhibition; for RORγt (FL) Reporter Assay B or C, % inhibition (value marked *): marked *: footnote not given
Chain of full-length human RORγt (P51449 other isoform, or with tags, fused parts or gaps): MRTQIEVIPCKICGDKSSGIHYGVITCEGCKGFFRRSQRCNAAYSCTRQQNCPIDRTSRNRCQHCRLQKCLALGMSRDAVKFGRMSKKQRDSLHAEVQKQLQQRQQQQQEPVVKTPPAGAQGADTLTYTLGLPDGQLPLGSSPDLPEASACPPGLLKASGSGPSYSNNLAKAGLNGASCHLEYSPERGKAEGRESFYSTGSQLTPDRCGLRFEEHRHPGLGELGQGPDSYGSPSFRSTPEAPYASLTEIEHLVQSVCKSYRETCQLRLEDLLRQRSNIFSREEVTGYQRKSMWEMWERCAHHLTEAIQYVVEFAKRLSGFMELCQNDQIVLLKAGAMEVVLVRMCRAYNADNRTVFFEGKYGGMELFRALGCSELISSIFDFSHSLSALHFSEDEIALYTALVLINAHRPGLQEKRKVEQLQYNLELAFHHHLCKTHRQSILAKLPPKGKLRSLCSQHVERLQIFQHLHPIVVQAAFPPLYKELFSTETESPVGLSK
Description: RORγt (Full-Length Human) Reporter Assay:
Cells used in this assay were transiently co-transfected with three different plasmids, one expressing the GAL4-DNA binding domain (DBD)-RORγt fusion protein under control of a CMV promoter (NH2-Gal4-DBD:RORC-COOH in pCMV-BD, Stratagene #211342), and two reporter plasmids—the firefly luciferase reporter under control of a GAL4 promoter (pFR-Luc 2×GAL4) and Renilla luciferase reporter under control of CMV promoter (pRL-CMV, Promega # E2261). The full-length coding sequence was used for human RORγt, i.e., nucleotides 142-1635 of human RORγt, transcript variant 2, NCBI Accession: NM_001001523.1 (SEQ ID NO:1). HEK293T cells were plated at 35,000 per well in 96-well plate in medium of DMEM with 10% FBS. After 18-22 hours incubation, the transfection was carried out by using a PEI solution with 170.5 ng total DNA/well (50 ng pCMV-BD-ROR plus 20 ng of pFR-Luc reporter and 0.5 ng of pRL-CMV reporter plus 100 ng Carrier DNA (Clontech #630440) for each well). 4-6 hours after transfection, cells were treated with compounds for overnight in the medium with final concentration of FBS 1.3% and DMSO 0.1%. After overnight (16 to 20 hours) incubation, media were removed and cells were lysed with 50 μL Glo Lysis Buffer (Promega) for 10-15 minutes followed by 10 minute incubation with 50 μL Dual Glo reagent (Promega) at room temperature. Firefly luciferase luminescence was measured using a BMG Pherastar plate reader. To each well, 50 μL Stop and Glo reagent was added and incubated for 10 minutes at room temperature. Renilla luminescence was measured using a BMG Pherastar plate reader. To calculate the effect of compounds on RORγt activity, firefly values were normalized against values of DMSO only and values of reference compound at saturating concentration, then further normalized against Renilla signals. IC50s were generated by plotting final Renilla normalized data against compound concentration and percent inhibition was calculated against DMSO control.
Cells used in this assay were transiently co-transfected with three different plasmids, one expressing the GAL4-DNA binding domain (DBD)-RORγt fusion protein under control of a CMV promoter (NH2-Gal4-DBD:RORC-COOH in pCMV-BD, Stratagene #211342), and two reporter plasmids—the firefly luciferase reporter under control of a GAL4 promoter (pFR-Luc 2×GAL4) and Renilla luciferase reporter under control of CMV promoter (pRL-CMV, Promega # E2261). The full-length coding sequence was used for human RORγt, i.e., nucleotides 142-1635 of human RORγt, transcript variant 2, NCBI Accession: NM_001001523.1 (SEQ ID NO:1). HEK293T cells were plated at 8750 cells per well in 384-well plate in medium of DMEM with 10% FBS. After 18-22 hours incubation, the transfection was carried out by using a PEI solution with 42.6 ng total DNA/well (12.5 ng pCMV-BD-ROR plus 5 ng of pFR-Luc reporter and 0.125 ng of pRL-CMV reporter plus 25 ng Carrier DNA (Clontech #630440) for each well). 4-6 hours after transfection, cells were treated with compounds for overnight in the medium with final concentration of FBS 1.3% and DMSO 0.1%. After overnight (16 to 20 hours) incubation, media were removed and cells were lysed with 20 μL Glo Lysis Buffer (Promega) for 10-15 minutes followed by 10 minute incubation with 20 μL Dual Glo reagent (Promega) at room temperature. Firefly luciferase luminescence was measured using a BMG Pherastar plate reader. To each well, 20 μL Stop and Glo reagent was added and incubated for 10 minutes at room temperature. Renilla luminescence was measured using a BMG Pherastar plate reader. To calculate the effect of compounds on RORγt activity, firefly values were normalized against values of DMSO only and values of reference compound at saturating concentration, then further normalized against Renilla signals.

[2] = read-out: RORγt (FL) Reporter Assay B or C, IC50
[3] = Conditions B or C, read-out: RORγt (FL) Reporter Assay B or C, IC50

Chain of human RORγt ligand binding domain (RORγt LBD) (P51449 other isoform, or with tags, fused parts or gaps): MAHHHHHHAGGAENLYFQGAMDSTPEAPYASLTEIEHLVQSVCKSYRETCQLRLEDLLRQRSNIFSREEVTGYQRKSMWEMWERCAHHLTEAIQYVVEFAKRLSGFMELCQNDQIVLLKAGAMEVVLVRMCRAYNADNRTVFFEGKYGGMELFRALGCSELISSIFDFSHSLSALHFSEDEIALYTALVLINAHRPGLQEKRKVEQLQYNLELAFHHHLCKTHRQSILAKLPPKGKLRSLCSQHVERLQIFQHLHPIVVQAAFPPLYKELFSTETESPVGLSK

C[C@H](Nc1cc(C(F)F)c(-c2sc(C(=O)NCC(C)(C)O)nc2C(=O)N2CCC[C@@H]2C)cn1)C(C)(C)C [Example 299, 5-(4-(Difluoromethyl)-6-(((S)-3,3-dimethylbutan-2-yl)amino)pyridin-3-yl)-N-(2-hydroxy-2-methylpropyl)-4-((S)-2-methylpyrrolidine-1-carbonyl)thiazole-2-carboxamide]
Kd [1]: 0.91 nM
inhibition at 3 µM (full-length human RORγt): 103%
IC50 (full-length human RORγt; [2]): 0.011 µM

CC[C@H](Nc1cc(C(F)F)c(-c2sc(C(=O)NCC(C)(C)O)nc2C(=O)N2C3CCC2CC3)cn1)C1CC1 (stereo in doubt) [Example 163, 4-((1s,4s)-7-Azabicyclo[2.2.1]heptane-7-carbonyl)-5-(6-(((S*)-1-cyclopropyl)amino)-4-(difluoromethyl)pyridine-3-yl)-N-(2-hydroxy-2-methylpropyl)thiazole-2-carboxamide]
Kd [1]: 14 nM
RORγt (FL) Reporter Assay B or C, % inhibition (value marked *) (full-length human RORγt; Conditions B or C): 114* %
IC50 (full-length human RORγt; [3]): 0.012 µM

CC[C@H](Nc1cc(C(F)F)c(-c2sc(C(=O)N[C@@H]3COC[C@H]3O)nc2C(=O)N2C3CCC2CC3)cn1)C(F)(F)F [Example 208, 4-((1s,4s)-7-Azabicyclo[2.2.1]heptane-7-carbonyl)-5-(4-(difluoromethyl)-6-(((1S)-1-(trifluoromethyl)propyl)amino)-3-pyridyl)-N-((3R,4S)-4-hydroxytetrahydrofuran-3-yl)thiazole-2-carboxamide]
Kd [1]: 4.4 nM
RORγt (FL) Reporter Assay B or C, % inhibition (value marked *) (full-length human RORγt; Conditions B or C): 101* %
IC50 (full-length human RORγt; [3]): 0.054 µM

C[C@H]1CCCN1C(=O)c1nc(C(=O)NCC(C)(C)O)sc1-c1cnc(N[C@@H](C2CC2)C(F)(F)F)cc1C(F)F [Example 295]
Kd [1]: 2.9 nM
inhibition at 3 µM (full-length human RORγt): 108%
IC50 (full-length human RORγt; [2]): 0.014 µM

CC[C@H](Nc1cc(C(F)(F)F)c(-c2sc(C(=O)N[C@H]3COC[C@@H]3O)nc2C(=O)N2C3CCC2CC3)cn1)C(F)(F)F [Example 156]
Kd [1]: 1 nM
RORγt (FL) Reporter Assay B or C, % inhibition (value marked *) (full-length human RORγt; Conditions B or C): 102* %
IC50 (full-length human RORγt; RORγt (FL) Reporter Assay B or C, IC50 (μM), Conditions B or C): 0.044 µM

C[C@H]1CCCN1C(=O)c1nc(C(=O)NCC(O)(C(F)(F)F)C(F)(F)F)sc1-c1cnc(NC(C)(C)C)cc1C(F)F [Example 264, 5-[6-(tert-Butylamino)-4-(difluoromethyl)-3-pyridyl]-4-[(2S)-2-methylpyrrolidine-1-carbonyl]-N-[3,3,3-trifluoro-2-hydroxy-2-(trifluoromethyl)propyl]thiazole-2-carboxamide]
Kd [1]: 4.9 nM
inhibition at 3 µM (full-length human RORγt): 112%
IC50 (full-length human RORγt; [2]): 0.028 µM

C[C@H]1CCCCN1C(=O)c1nc(C(=O)NCC(C)(C)O)sc1-c1cnc(N[C@H](C)C(F)(F)F)cc1C(F)(F)F [Example 45, N-(2-Hydroxy-2-methylpropyl)-4-((S)-2-methylpiperidine-1-carbonyl)-5-(4-(trifluoromethyl)-6-(((R)-1,1,1-trifluoropropan-2-yl)amino)pyridin-3-yl)thiazole-2-carboxamide]
Kd [1]: 0.62 nM
IC50 (full-length human RORγt; [3]): 0.01 µM
inhibition at 6 µM (full-length human RORγt; read-out: RORγt (FL) Reporter Assay B or C, % inhibition @ 6 μM, Conditions B or C, @ 6 μM): 111%

C[C@H](Nc1cc(C(F)F)c(-c2sc(C(=O)N[C@@H]3CC[C@@H](O)C3)nc2C(=O)N2CC(F)(F)C[C@@H]2C)cn1)C(F)(F)F [Example 410, 4-[(2S)-4,4-Difluoro-2-methyl-pyrrolidine-1-carbonyl]-5-[4-(difluoromethyl)-6-[[(1S)-2,2,2-trifluoro-1-methyl-ethyl]amino]-3-pyridyl]-N-[(1R,3R)-3-hydroxycyclopentyl]thiazole-2-carboxamide]
Kd [1]: 1.1 nM
inhibition at 3 µM (full-length human RORγt): 97%
IC50 (full-length human RORγt; [2]): 0.018 µM

C[C@H]1CCCN1C(=O)c1nc(C(=O)N[C@H]2C[C@@H](O)C2)sc1-c1cnc(NC(C)(C)C)cc1C(F)(F)F [Example 251, 5-[6-(tert-Butylamino)-4-(trifluoromethyl)-3-pyridyl]-N-((1s,3R)-3-hydroxycyclobutyl)-4-[(2S)-2-methylpyrrolidine-1-carbonyl]thiazole-2-carboxamide]
Kd [1]: 21 nM
inhibition at 3 µM (full-length human RORγt): 104%
IC50 (full-length human RORγt; [2]): 0.072 µM

C[C@H]1CCCCN1C(=O)c1nc(C(=O)NCC(C)(C)O)sc1-c1cnc(NC(C)(C)C)cc1C(F)(F)F [Example 80, (S)-5-(6-(tert-Butylamino)-4-(trifluoromethyl)pyridin-3-yl)-N-(2-hydroxy-2-methylpropyl)-4-(2-methylpiperidine-1-carbonyl)thiazole-2-carboxamide]
Kd [1]: 0.19 nM
RORγt (FL) Reporter Assay B or C, % inhibition (value marked *) (full-length human RORγt; Conditions B or C): 111* %
IC50 (full-length human RORγt; [3]): 0.0047 µM
